Measurements as given in patent US20210330566A1, “WATER-SOLUBILIZED MIXTURE OF GINSENOSIDE COMPOUND K AND METHOD OF WATERSOLUBILIZING GINSENOSIDE COMPOUND K” (VENN SKINCARE, INC., priority 2018, published 2021).

Assay: Solubility test of ginsenoside compound K depending on type of solvent
Assay type: physicochemical
Details: 95% of solvent and 5% of ginsenoside compound K
Procedure: The solubility of ginsenoside compound K was tested to be checked for representative polar and nonpolar solvents mainly used in cosmetics.

## CC(C)=CCC[C@](C)(O[C@@H]1O[C@H](CO)[C@@H](O)[C@H](O)[C@H]1O)[C@H]1CC[C@]2(C)[C@@H]1[C@H](O)C[C@@H]1[C@@]3(C)CC[C@H](O)C(C)(C)[C@@H]3CC[C@]12C [ginsenoside compound K, 20-O-β-D-glucopyranosyl-20(S)-protopanaxadiol]
Solvent Ethanol
  Solubility (60° C.): Soluble
  Solubility (room temperature): Soluble
Solvent Glycerin
  Solubility (60° C.): Insoluble
  Solubility (room temperature): Insoluble
Solvent Mineral Oil
  Solubility (60° C.): Insoluble
  Solubility (room temperature): Insoluble
Solvent Non-Polar Ester Oil
  Solubility (60° C.): Insoluble
  Solubility (room temperature): Insoluble
Solvent Polar Ester Oil
  Solubility (60° C.): Insoluble
  Solubility (room temperature): Insoluble
Solvent Silicone
  Solubility (60° C.): Insoluble
  Solubility (room temperature): Insoluble
Solvent Surfactant
  Solubility (60° C.): Insoluble
  Solubility (room temperature): Insoluble
Solvent Vegetable Oil
  Solubility (60° C.): Insoluble
  Solubility (room temperature): Insoluble
Solvent Water
  Solubility (60° C.): Insoluble
  Solubility (room temperature): Insoluble
